As usually defined, the pIC50 is the negative decadic logarithm of the IC50, by convention in mol/L.

Molecules are shown by their SMILES. pIC50: −log10 of the molar value.

In this assay the target is T1, PD-1/PD-L1 (Homo sapiens, UniProt Q9NZQ7).
T1 construct: made in house; host or cells: HEK293T
T1 sequence (Q9NZQ7 with tags, fused parts or gaps): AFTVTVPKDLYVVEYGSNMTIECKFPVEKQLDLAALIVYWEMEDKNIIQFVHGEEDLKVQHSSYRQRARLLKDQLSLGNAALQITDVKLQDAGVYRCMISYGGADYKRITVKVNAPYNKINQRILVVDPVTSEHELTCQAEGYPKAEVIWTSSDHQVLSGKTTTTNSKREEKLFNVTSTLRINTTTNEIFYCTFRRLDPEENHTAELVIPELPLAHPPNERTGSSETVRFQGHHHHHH
As to the kind of experiment: PD-1/PD-L1 Homogenous Time-Resolved Fluorescence (HTRF) binding assay. The following applies: PD-L1-His 10 nM, PD-1-Ig 20 nM; value given as range class; read-out: Range or IC50. The essentials: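 Detection by europium cryptate anti-Ig plus APC anti-His (1 nM and 20 nM final) with HTRF signal. Buffer was dPBS, 0.1% BSA, 0.05% Tween-20.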
In the case of `Cc1c(COc2cc(OCc3cncc(C#N)c3)c(CNC[C@H](O)CO)cc2Cl)cccc1-c1cccc(OCCCN2CC(N(C)C)C2)c1Cl` [Example 2028, (S)-5-((4-chloro-5-((2′-chloro-3′-(3-(3-(dimethylamino)azetidin-1-yl)propoxy)-2-methyl-[1,1′-biphenyl]-3-yl)methoxy)-2-(((2,3-dihydroxypropyl)amino)methyl)phenoxy)methyl)nicotinonitrile], the pIC50 is 8.00 to 9.68.

In the case of `Cc1c(COc2cc(OCc3cncc(C#N)c3)c(CNC[C@H](O)CO)cc2Cl)cccc1-c1cccc(OCCCN(C)C[C@H](O)CO)c1Cl` [Example 2029, 5-((4-chloro-5-((2′-chloro-3′-(3-(((S)-2,3-dihydroxypropyl)(methyl)amino)propoxy)-2-methyl-[1,1′-biphenyl]-3-yl)methoxy)-2-((((S)-2,3-dihydroxypropyl)amino)methyl)phenoxy)methyl)nicotinonitrile], the pIC50 is 8.00 to 9.68.

For `Cc1c(COc2cc(OCc3cncc(C#N)c3)c(CNC[C@H](O)CO)cc2Cl)cccc1-c1cccc(OCCCN2CC[C@H](O)[C@@H](O)C2)c1Cl` [Example 2030, 5-((4-chloro-5-((2′-chloro-3′-(3-((3S,4S)-3,4-dihydroxypiperidin-1-yl)propoxy)-2-methyl-[1,1′-biphenyl]-3-yl)methoxy)-2-((((S)-2,3-dihydroxypropyl)amino)methyl)phenoxy)methyl)nicotinonitrile], the pIC50 was 8.00 to 9.68.

In the case of `Cc1c(COc2cc(OCc3cncc(C#N)c3)c(CNC[C@H](O)CO)cc2Cl)cccc1-c1cccc(OCCCN2CC[C@H](CO)[C@H](O)C2)c1Cl` [Example 2031, 5-((4-chloro-5-((2′-chloro-3′-(3-((3 S,4R)-3-hydroxy-4-(hydroxymethyl)piperidin-1-yl)propoxy)-2-methyl-[1,1′-biphenyl]-3-yl)methoxy)-2-((((S)-2,3-dihydroxypropyl)amino)methyl)phenoxy)methyl)nicotinonitrile], the pIC50 was 8.00 to 9.68.

With `Cc1c(COc2cc(OCc3cncc(C#N)c3)c(CNC[C@H](O)CO)cc2Cl)cccc1-c1cccc(OCCCN(C)CCC(N)=O)c1Cl` [Example 2032, (S)-3-((3-((2-chloro-3′-((2-chloro-5-((5-cyanopyridin-3-yl)methoxy)-4-(((2,3-dihydroxypropyl)amino)methyl)phenoxy)methyl)-2′-methyl-[1,1′-biphenyl]-3-yl)oxy)propyl)(methyl)amino)propanamide], the negative-log IC50 (pIC50) is 8.00 to 9.68.

For the molecule `N#Cc1cncc(COc2cc(OCc3cccc(-c4cccc(OCCCNC[C@H](O)CO)c4Cl)c3Cl)c(Cl)cc2CNC[C@H](O)CO)c1` [Example 2033, 5-((4-chloro-5-((2,2′-dichloro-3′-(3-(((S)-2,3-dihydroxypropyl)amino)propoxy)-[1,1′-biphenyl]-3-yl)methoxy)-2-((((S)-2,3-dihydroxypropyl)amino)methyl)phenoxy)methyl)nicotinonitrile], the pIC50 is 8.00 to 9.68.

Regarding `N#Cc1cncc(COc2cc(OCc3cccc(-c4cccc(OCCCN5CC[C@@H](O)C5)c4Cl)c3Cl)c(Cl)cc2CNC[C@H](O)CO)c1` [Example 2034, 5-((4-chloro-5-((2,2′-dichloro-3′-(3-((R)-3-hydroxypyrrolidin-1-yl)propoxy)-[1,1′-biphenyl]-3-yl)methoxy)-2-((((S)-2,3-dihydroxypropyl)amino)methyl)phenoxy)methyl)nicotinonitrile], the negative-log IC50 (pIC50) was 8.00 to 9.68.

For the molecule `Cc1c(COc2cc(OCc3cncc(C#N)c3)c(CNC(CO)CO)cc2Cl)cccc1-c1cccc(OCCCN2CC[C@@H](O)C2)c1Cl` [Example 2035, (R)-5-((4-chloro-5-((2′-chloro-3′-(3-(3-hydroxypyrrolidin-1-yl)propoxy)-2-methyl-[1,1′-biphenyl]-3-yl)methoxy)-2-(((1,3-dihydroxypropan-2-yl)amino)methyl)phenoxy)methyl)nicotinonitrile], the pIC50 is 8.00 to 9.68.

On to `Cc1c(COc2cc(OCc3cncc(C#N)c3)c(CNC(CO)CO)cc2Cl)cccc1-c1cccc(OCCCNC[C@H](O)CO)c1Cl` [Example 2036, (S)-5-((4-chloro-5-((2′-chloro-3′-(3-((2,3-dihydroxypropyl)amino)propoxy)-2-methyl-[1,1′-biphenyl]-3-yl)methoxy)-2-(((1,3-dihydroxypropan-2-yl)amino)methyl)phenoxy)methyl)nicotinonitrile], for which the negative-log IC50 (pIC50) is 8.00 to 9.68.

Take `Cc1c(COc2cc(OCc3cncc(C#N)c3)c(CNC(CO)CO)cc2Cl)cccc1-c1cccc(OCCCNCCc2cccnc2)c1Cl` [Example 2037, 5-((4-chloro-5-((2′-chloro-2-methyl-3′-(3-((2-(pyridin-3-yl)ethyl)amino)propoxy)-[1,1′-biphenyl]-3-yl)methoxy)-2-(((1,3-dihydroxypropan-2-yl)amino)methyl)phenoxy)methyl)nicotinonitrile]: the negative-log IC50 (pIC50) was 8.00 to 9.68.

For the molecule `Cc1c(COc2cc(OCc3cncc(C#N)c3)c(CN[C@](C)(CO)C(=O)O)cc2Cl)cccc1-c1cccc(OCCCNC(CO)CO)c1Cl` [Example 2038, (R)-2-((5-chloro-4-((2′-chloro-3′-(3-((1,3-dihydroxypropan-2-yl)amino)propoxy)-2-methyl-[1,1′-biphenyl]-3-yl)methoxy)-2-((5-cyanopyridin-3-yl)methoxy)benzyl)amino)-3-hydroxy-2-methylpropanoic Acid], the pIC50 is 8.00 to 9.68.

Take `Cc1c(COc2cc(OCc3cncc(C#N)c3)c(CO)cc2Cl)cccc1-c1cccc(OCCCNC(CO)CO)c1Cl` [Example 2039, 5-((4-chloro-5-((2′-chloro-3′-(3-((1,3-dihydroxypropan-2-yl)amino)propoxy)-2-methyl-[1,1′-biphenyl]-3-yl)methoxy)-2-(hydroxymethyl)phenoxy)methyl)nicotinonitrile]: the pIC50 is 8.00 to 9.68.

For the molecule `Cc1c(COc2cc(OCc3cncc(C#N)c3)c(CN[C@](C)(CO)C(=O)O)cc2Cl)cccc1-c1cccc(OCCCNC(CO)(CO)CO)c1Cl` [Example 2040, (R)-2-((5-chloro-4-((2′-chloro-3′-(3-((1,3-dihydroxy-2-(hydroxymethyl)propan-2-yl)amino)propoxy)-2-methyl-[1,1′-biphenyl]-3-yl)methoxy)-2-((5-cyanopyridin-3-yl)methoxy)benzyl)amino)-3-hydroxy-2-methylpropanoic Acid], the pIC50 was 8.00 to 9.68.

With `Cc1c(COc2cc(OCc3cncc(C#N)c3)c(CO)cc2Cl)cccc1-c1cccc(OCCCNC(CO)(CO)CO)c1Cl` [Example 2041, 5-((4-chloro-5-((2′-chloro-3′-(3-((1,3-dihydroxy-2-(hydroxymethyl)propan-2-yl)amino)propoxy)-2-methyl-[1,1′-biphenyl]-3-yl)methoxy)-2-(hydroxymethyl)phenoxy)methyl)nicotinonitrile], the negative logarithm of the IC50 (pIC50) is 7.00 to 8.00.

As for `Cc1c(COc2cc(OCc3cncc(C#N)c3)c(CNC(CO)CO)cc2Cl)cccc1-c1cccc(OCCCNC(CO)CO)c1Cl` [Example 2042, 5-((4-chloro-5-((2′-chloro-3′-(3-((1,3-dihydroxypropan-2-yl)amino)propoxy)-2-methyl-[1,1′-biphenyl]-3-yl)methoxy)-2-(((1,3-dihydroxypropan-2-yl)amino)methyl)phenoxy)methyl)nicotinonitrile], the negative logarithm of the IC50 (pIC50) was 8.00 to 9.68.

Values taken from US10745382B2 (BRISTOL-MYERS SQUIBB COMPANY, priority 2015, dated 2020).
